According to publication PMC5513037, “Examining the influence of specificity ligands and ATP-competitive ligands on the overall effectiveness of bivalent kinase inhibitors” (Proteome Science, 2017):

Key:
Assay in all cases: KAM-matrix competition in K562 lysate;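 as to 0.001 uM KAM: median log10 fold change of treatment over DMSO control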;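 as to 0.01 uM KAM: median log10 fold change of treatment over DMSO control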;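 as to 0.1 uM KAM: median log10 fold change of treatment over DMSO control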;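 as to 1 uM KAM: median log10 fold change of treatment over DMSO control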;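 as to 10 uM KAM: median log10 fold change of treatment over DMSO control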
Format in all cases: binding
MAP4K5 = molecular target: T1, MAP4K5 (Homo sapiens, UniProt Q9Y4K4)
T1 construct: endogenous in cells; host or cells: K562
Description: (§1) Supplement 12953_2017_125_MOESM1_ESM.zip/MS_Supp Info.xlsx, sheet "KAM" | column: 10 uM KAM; 1 uM KAM; 0.1 uM KAM; 0.01 uM KAM; 0.001 uM KAM; RB50

MTOR = molecular target: T2, MTOR (Homo sapiens, UniProt P42345);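 as to 0.001 uM KAM: median log10 fold change of treatment over DMSO control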;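 as to 0.01 uM KAM: median log10 fold change of treatment over DMSO control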;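 as to 0.1 uM KAM: median log10 fold change of treatment over DMSO control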;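 as to 1 uM KAM: median log10 fold change of treatment over DMSO control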;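 as to 10 uM KAM: median log10 fold change of treatment over DMSO control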
T2 construct: endogenous in cells; host or cells: K562
Description: as §1

TNK1 = molecular target: T3, TNK1 (Homo sapiens, UniProt Q13470)
T3 construct: endogenous in cells; host or cells: K562
T3 sequence (Q13470 1-666): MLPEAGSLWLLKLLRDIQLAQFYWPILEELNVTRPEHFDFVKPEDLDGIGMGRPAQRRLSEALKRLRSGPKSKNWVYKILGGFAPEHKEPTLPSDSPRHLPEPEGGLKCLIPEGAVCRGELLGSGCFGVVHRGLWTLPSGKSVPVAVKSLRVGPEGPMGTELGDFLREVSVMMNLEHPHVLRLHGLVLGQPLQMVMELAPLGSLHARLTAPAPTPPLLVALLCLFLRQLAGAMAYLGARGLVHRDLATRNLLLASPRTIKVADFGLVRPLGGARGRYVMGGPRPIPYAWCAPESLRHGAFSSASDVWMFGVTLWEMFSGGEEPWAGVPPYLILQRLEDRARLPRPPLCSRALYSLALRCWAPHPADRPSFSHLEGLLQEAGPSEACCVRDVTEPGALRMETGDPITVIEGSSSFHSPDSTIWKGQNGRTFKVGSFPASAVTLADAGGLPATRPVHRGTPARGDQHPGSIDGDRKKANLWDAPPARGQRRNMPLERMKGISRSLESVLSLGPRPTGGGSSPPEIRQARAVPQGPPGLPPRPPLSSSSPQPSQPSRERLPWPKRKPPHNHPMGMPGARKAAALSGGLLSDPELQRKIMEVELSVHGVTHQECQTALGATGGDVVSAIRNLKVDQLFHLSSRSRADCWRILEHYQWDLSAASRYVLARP
Description: as §1

MAP3K5 = molecular target: T4, MAP3K5 (Homo sapiens, UniProt Q99683)
T4 construct: endogenous in cells; host or cells: K562 cell lysate
T4 sequence (Q99683 1-1374): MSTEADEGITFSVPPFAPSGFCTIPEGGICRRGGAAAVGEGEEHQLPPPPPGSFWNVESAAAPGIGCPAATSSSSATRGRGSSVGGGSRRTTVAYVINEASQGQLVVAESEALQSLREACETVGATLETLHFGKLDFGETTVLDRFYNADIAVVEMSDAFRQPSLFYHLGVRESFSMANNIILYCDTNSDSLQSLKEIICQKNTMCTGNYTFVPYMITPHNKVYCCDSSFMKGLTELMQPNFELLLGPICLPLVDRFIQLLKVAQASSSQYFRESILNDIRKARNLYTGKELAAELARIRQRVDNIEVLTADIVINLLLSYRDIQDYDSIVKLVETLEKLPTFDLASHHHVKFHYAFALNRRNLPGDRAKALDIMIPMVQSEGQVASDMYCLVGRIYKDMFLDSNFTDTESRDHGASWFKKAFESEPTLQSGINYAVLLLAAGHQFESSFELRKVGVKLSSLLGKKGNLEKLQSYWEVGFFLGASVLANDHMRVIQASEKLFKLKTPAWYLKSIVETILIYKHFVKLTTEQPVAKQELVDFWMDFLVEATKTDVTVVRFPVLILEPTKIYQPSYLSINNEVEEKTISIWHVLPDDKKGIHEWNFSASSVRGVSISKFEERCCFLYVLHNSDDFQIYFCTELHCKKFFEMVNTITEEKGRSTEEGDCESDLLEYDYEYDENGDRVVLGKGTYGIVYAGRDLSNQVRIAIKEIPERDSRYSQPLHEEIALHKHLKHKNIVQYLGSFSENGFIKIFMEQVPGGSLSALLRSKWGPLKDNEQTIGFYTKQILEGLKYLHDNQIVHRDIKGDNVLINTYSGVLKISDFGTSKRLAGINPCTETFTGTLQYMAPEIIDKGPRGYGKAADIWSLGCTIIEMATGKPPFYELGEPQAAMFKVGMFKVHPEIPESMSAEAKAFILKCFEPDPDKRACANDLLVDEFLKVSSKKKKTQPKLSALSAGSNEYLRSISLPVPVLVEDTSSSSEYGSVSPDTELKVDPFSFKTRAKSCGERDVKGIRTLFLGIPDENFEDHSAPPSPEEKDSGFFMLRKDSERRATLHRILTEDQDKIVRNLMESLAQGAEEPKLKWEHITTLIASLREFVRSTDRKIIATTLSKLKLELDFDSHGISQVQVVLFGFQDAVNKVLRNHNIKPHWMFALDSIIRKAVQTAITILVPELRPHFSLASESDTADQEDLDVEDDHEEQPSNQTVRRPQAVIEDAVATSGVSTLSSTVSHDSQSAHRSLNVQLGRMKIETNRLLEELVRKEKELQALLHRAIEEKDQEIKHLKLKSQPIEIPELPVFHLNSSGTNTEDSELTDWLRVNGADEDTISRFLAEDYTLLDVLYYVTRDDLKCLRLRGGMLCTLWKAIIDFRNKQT
Description: as §1

IRAK1 = molecular target: T5, IRAK1 (Homo sapiens, UniProt P51617);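 as to 0.001 uM KAM: median log10 fold change of treatment over DMSO control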;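 as to 0.01 uM KAM: median log10 fold change of treatment over DMSO control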;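 as to 0.1 uM KAM: median log10 fold change of treatment over DMSO control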;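 as to 1 uM KAM: median log10 fold change of treatment over DMSO control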;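 as to 10 uM KAM: median log10 fold change of treatment over DMSO control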
T5 construct: endogenous in cells; host or cells: K562
Description: as §1

[1] = read-out: RB50 (the source's name)
[2] = KAM 0.001-10 uM, read-out: RB50 (the source's name)

T5 sequence (P51617 whole entry): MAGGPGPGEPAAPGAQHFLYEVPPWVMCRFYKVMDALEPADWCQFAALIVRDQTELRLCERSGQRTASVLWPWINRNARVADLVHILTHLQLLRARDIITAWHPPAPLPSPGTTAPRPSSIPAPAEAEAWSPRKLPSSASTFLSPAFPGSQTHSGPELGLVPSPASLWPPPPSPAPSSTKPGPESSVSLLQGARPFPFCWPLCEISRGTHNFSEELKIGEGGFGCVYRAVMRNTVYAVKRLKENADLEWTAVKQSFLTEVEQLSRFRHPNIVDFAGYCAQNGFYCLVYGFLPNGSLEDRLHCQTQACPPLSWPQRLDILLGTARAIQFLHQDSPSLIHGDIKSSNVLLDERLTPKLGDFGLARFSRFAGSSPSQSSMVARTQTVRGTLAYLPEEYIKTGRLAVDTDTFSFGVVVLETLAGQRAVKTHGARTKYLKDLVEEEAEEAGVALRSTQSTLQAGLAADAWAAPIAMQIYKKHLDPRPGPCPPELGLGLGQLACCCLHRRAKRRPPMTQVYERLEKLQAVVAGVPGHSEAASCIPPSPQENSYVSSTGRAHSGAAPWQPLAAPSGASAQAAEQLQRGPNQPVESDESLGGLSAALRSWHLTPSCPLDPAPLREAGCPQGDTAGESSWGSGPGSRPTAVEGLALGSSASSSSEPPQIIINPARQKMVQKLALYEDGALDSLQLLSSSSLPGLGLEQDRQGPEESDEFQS
T1 sequence (Q9Y4K4 whole entry): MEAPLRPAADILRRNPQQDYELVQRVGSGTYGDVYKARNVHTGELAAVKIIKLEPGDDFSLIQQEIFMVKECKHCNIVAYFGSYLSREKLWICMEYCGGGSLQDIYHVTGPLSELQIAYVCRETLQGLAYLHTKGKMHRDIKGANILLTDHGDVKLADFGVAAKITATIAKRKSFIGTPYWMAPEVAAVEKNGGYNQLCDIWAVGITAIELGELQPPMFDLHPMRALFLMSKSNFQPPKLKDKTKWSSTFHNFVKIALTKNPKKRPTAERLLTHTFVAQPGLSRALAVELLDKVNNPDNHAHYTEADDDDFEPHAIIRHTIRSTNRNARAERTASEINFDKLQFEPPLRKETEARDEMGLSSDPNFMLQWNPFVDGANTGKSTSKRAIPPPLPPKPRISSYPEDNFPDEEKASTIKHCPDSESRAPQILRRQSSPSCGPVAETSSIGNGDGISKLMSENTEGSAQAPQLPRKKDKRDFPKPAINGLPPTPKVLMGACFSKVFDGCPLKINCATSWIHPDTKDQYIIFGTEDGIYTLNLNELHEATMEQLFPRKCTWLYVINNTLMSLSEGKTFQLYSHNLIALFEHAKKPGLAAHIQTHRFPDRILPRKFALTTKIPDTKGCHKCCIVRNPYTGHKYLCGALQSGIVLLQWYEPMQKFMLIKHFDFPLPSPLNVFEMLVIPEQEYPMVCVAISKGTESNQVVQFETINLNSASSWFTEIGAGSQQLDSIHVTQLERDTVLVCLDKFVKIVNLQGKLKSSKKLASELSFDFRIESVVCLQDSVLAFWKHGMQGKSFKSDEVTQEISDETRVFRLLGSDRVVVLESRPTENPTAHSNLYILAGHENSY

Structure (SMILES): N#CCc1ccc(Nc2nc(NCCCN)cc(Nc3cc(C4CC4)[nH]n3)n2)cc1 [KAM]
- median Log10 fold change (MAP4K5; 0.001 uM KAM): 0.009454
- median Log10 fold change (MAP4K5; 0.01 uM KAM): -0.01011
- median Log10 fold change (MAP4K5; 0.1 uM KAM): -0.2304
- median Log10 fold change (MAP4K5; 1 uM KAM): -0.4191
- median Log10 fold change (MAP4K5; 10 uM KAM): -0.5735
- IC50 (MAP4K5; [1]): 0.332 µM
- IC50 (MTOR; [2]): > 10 µM
- 0.001 uM KAM (MTOR; relative to 0 uM KAM = 0): -0.05296
- 0.01 uM KAM (MTOR; relative to 0 uM KAM = 0): -0.02855
- 0.1 uM KAM (MTOR; relative to 0 uM KAM = 0): -0.0574
- 1 uM KAM (MTOR; relative to 0 uM KAM = 0): -0.03577
- 10 uM KAM (MTOR; relative to 0 uM KAM = 0): -0.01614
- median Log10 fold change (TNK1; 0.001 uM KAM): -0.003814
- median Log10 fold change (TNK1; 0.01 uM KAM): -0.02527
- median Log10 fold change (TNK1; 0.1 uM KAM): -0.2865
- median Log10 fold change (TNK1; 1 uM KAM): -0.4389
- median Log10 fold change (TNK1; 10 uM KAM): -0.4693
- IC50 (TNK1; [1]): 0.199 µM
- median Log10 fold change (MAP3K5; 0.001 uM KAM): -0.02718
- median Log10 fold change (MAP3K5; 0.01 uM KAM): -0.01436
- median Log10 fold change (MAP3K5; 0.1 uM KAM): -0.08414
- median Log10 fold change (MAP3K5; 1 uM KAM): -0.1836
- median Log10 fold change (MAP3K5; 10 uM KAM): -0.3705
- IC50 (MAP3K5; [1]): 4.18 µM
- IC50 (IRAK1; [2]): 6.03 µM
- 0.001 uM KAM (IRAK1; relative to 0 uM KAM = 0): -0.01461
- 0.01 uM KAM (IRAK1; relative to 0 uM KAM = 0): -0.006177
- 0.1 uM KAM (IRAK1; relative to 0 uM KAM = 0): -0.1059
- 1 uM KAM (IRAK1; relative to 0 uM KAM = 0): -0.1722
- 10 uM KAM (IRAK1; relative to 0 uM KAM = 0): -0.3131
